In patent US20190367448A1, “TREATMENT OF SLEEP-WAKE DISORDERS” (SK Biopharmaceuticals Co., Ltd., priority 2005, published 2019):

What was measured:
Mice = assay: Spontaneous Locomotor Activity in Mice and Rats model (mice); format: in vivo, mouse
[1] = tested on: male adult Sprague Dawley rats; assay: Sleep-wake organization in rats, polysomnographic recording (EEG, EOG, EMG, body movement) for 16 hours after acute i.p. administration; format: in vivo, rat; settings: rats; for Duration (min) Active wake / Duration (min) Deep sleep / Duration (min) Light sleep / Duration (min) Passive wake / Duration (min) REM sleep / Duration (min) intermediate stage / ISWS/TST (%) / Latency (min) ISWS / Latency (min) REM sleep / Latency (min) dSWS / REMS/TST (%) / Shifts (number) Shift from ISWS to AW / Shifts (number) Shift from ISWS to PW / Shifts (number) Shift from REMS to AW / Shifts (number) Shift from REMS to PW / Shifts (number) Shift from dSWS to AW / Shifts (number) Shift from dSWS to PW / Total sleep time TST / dSWS/TST (%): 16 hours recording period
Rats = assay: Spontaneous Locomotor Activity in Mice and Rats model (rats); format: in vivo, rat
[2] = 3 mg/kg i.p., 16 hours recording
[3] = 10 mg/kg i.p., first 90 minutes of the recording period
[4] = 30 mg/kg i.p., 16 hours recording
[5] = 30 mg/kg i.p., vs vehicle, 16-h post-injection period

For `NC(=O)OCC(N)Cc1ccccc1` [R228060, (R)-(beta-amino-benzenepropyl) carbamate], the “Spontaneous Locomotor Activity” value (Mice) was “stimulant or energizing effects”, the “increased drive to wakefulness from deep sleep” value [1, 2] was “+15%” and the “increased drive to wakefulness from light sleep” value [1, 2] was “+46%”. For the same molecule, the “Duration (min) Active wake” value ([1]; 3 mg/kg i.p.) was 290.0 min, the “Duration (min) Deep sleep” value ([1]; 3 mg/kg i.p.) was 125.0 min and the “Duration (min) Light sleep” value ([1]; 3 mg/kg i.p.) was 374.7 min. The “Duration (min) Passive wake” value ([1]; 3 mg/kg i.p.) was 79.5 min, the “Duration (min) REM sleep” value ([1]; 3 mg/kg i.p.) was 84.0 min and the “Duration (min) intermediate stage” value ([1]; 3 mg/kg i.p.) was 2.9 min. For the same molecule, the “ISWS/TST (%)” value ([1]; 3 mg/kg i.p.) was 64.3 ± 3.3%, the “Latency (min) ISWS” value ([1]; 3 mg/kg i.p.) was 15.6 ± 4.1 min and the “Latency (min) REM sleep” value ([1]; 3 mg/kg i.p.) was 66.0 ± 11.8 min. For the same molecule, the “Latency (min) dSWS” value ([1]; 3 mg/kg i.p.) was 42.0 ± 8.5 min, the “REMS/TST (%)” value ([1]; 3 mg/kg i.p.) was 14.4 ± 1.0% and the “Shifts (number) Shift from ISWS to AW” value ([1]; 3 mg/kg i.p.) was 217.8 number. For the same molecule, the “Shifts (number) Shift from ISWS to PW” value ([1]; 3 mg/kg i.p.) was 78.1 number, the “Shifts (number) Shift from REMS to AW” value ([1]; 3 mg/kg i.p.) was 78.0 number and the “Shifts (number) Shift from REMS to PW” value ([1]; 3 mg/kg i.p.) was 3.7 number. The “Shifts (number) Shift from dSWS to AW” value ([1]; 3 mg/kg i.p.) was 9.7 number, the “Shifts (number) Shift from dSWS to PW” value ([1]; 3 mg/kg i.p.) was 6.6 number and the “Total sleep time TST” value ([1]; 3 mg/kg i.p.) was 586.6 ± 20.0 min. For the same molecule, the “dSWS/TST (%)” value ([1]; 3 mg/kg i.p.) was 20.8 ± 3.8%, the “change in total time spent in light sleep” value (shortened to “change … in light sleep”) ([1]; 3 mg/kg, vs vehicle, 16 hours recording) was “+26%” and the “increase in shifts from REM sleep towards active wakefulness” value ([1]; 10 mg/kg i.p., 16 hours recording) was “+16%”. For the same molecule, the “Duration (min) Active wake” value ([1]; 10 mg/kg i.p.) was 305.5 min, the “Duration (min) Deep sleep” value ([1]; 10 mg/kg i.p.) was 104.0 min and the “Duration (min) Light sleep” value ([1]; 10 mg/kg i.p.) was 366.6 min. For the same molecule, the “Duration (min) Passive wake” value ([1]; 10 mg/kg i.p.) was 73.4 min, the “Duration (min) REM sleep” value ([1]; 10 mg/kg i.p.) was 102.3 min and the “Duration (min) intermediate stage” value ([1]; 10 mg/kg i.p.) was 5.2 min. The “ISWS/TST (%)” value ([1]; 10 mg/kg i.p.) was 63.5 ± 2.7%, the “Latency (min) ISWS” value ([1]; 10 mg/kg i.p.) was 30.4 ± 7.9 min and the “Latency (min) REM sleep” value ([1]; 10 mg/kg i.p.) was 87.5 ± 14.5 min. The “Latency (min) dSWS” value ([1]; 10 mg/kg i.p.) was 127.2 ± 67.1 min, the “REMS/TST (%)” value ([1]; 10 mg/kg i.p.) was 17.8 ± 1.0% and the “Shifts (number) Shift from ISWS to AW” value ([1]; 10 mg/kg i.p.) was 204.5 number. The “Shifts (number) Shift from ISWS to PW” value ([1]; 10 mg/kg i.p.) was 84.4 number, the “Shifts (number) Shift from REMS to AW” value ([1]; 10 mg/kg i.p.) was 94.1 number and the “Shifts (number) Shift from REMS to PW” value ([1]; 10 mg/kg i.p.) was 8.9 number. The “Shifts (number) Shift from dSWS to AW” value ([1]; 10 mg/kg i.p.) was 4.2 number, the “Shifts (number) Shift from dSWS to PW” value ([1]; 10 mg/kg i.p.) was 12.5 number and the “Total sleep time TST” value ([1]; 10 mg/kg i.p.) was 578.1 ± 22.6 min. For the same molecule, the “dSWS/TST (%)” value ([1]; 10 mg/kg i.p.) was 17.7 ± 3.1%, the deep sleep duration [1, 3] was “significant decrease” and the “time spent in active wakefulness” value [1, 3] was “increase”. For the same molecule, the “change … in light sleep” value ([1]; 10 mg/kg, vs vehicle, 16 hours recording) was “+24%”, the “overall profile of effects compared with amphetamine at 1 mg/kg (effect pattern, size and duration)” value ([1]; 30 mg/kg) was “remarkably similar” and the “rebound effect (increase in time spent in deep sleep), hours following administration” value ([1]; 30 mg/kg) was 4 to 10 h. The “mean durations of the sleep wake states (active wakefulness, passive wakefulness, light sleep, REM sleep)” value ([1]; 30 mg/kg i.p.) was “not modified”, the “change in number of REM sleep epochs” value [1, 4] was −24% and the “change in number of active wake epochs” value [1, 4] was “+19%”. For the same molecule, the “change in number of light sleep epochs” value [1, 4] was −23%, the “change in number of passive wakefulness epochs” value [1, 4] was −30% and the “Duration (min) Active wake” value ([1]; 30 mg/kg i.p.) was 371.6 min. The “Duration (min) Deep sleep” value ([1]; 30 mg/kg i.p.) was 214.9 min, the “Duration (min) Light sleep” value ([1]; 30 mg/kg i.p.) was 235.8 min and the “Duration (min) Passive wake” value ([1]; 30 mg/kg i.p.) was 57.3 min. The “Duration (min) REM sleep” value ([1]; 30 mg/kg i.p.) was 72.9 min, the “Duration (min) intermediate stage” value ([1]; 30 mg/kg i.p.) was 4.0 min and the “ISWS/TST (%)” value ([1]; 30 mg/kg i.p.) was 44.9 ± 2.9%. For the same molecule, the “Latency (min) ISWS” value ([1]; 30 mg/kg i.p.) was 73.6 ± 25.7 min, the “Latency (min) REM sleep” value ([1]; 30 mg/kg i.p.) was 251.8 ± 32.0 min and the “Latency (min) dSWS” value ([1]; 30 mg/kg i.p.) was 174.6 ± 12.3 min. The “REMS/TST (%)” value ([1]; 30 mg/kg i.p.) was 13.7 ± 1.3 %, the “Shifts (number) Shift from ISWS to AW” value ([1]; 30 mg/kg i.p.) was 221.9 number and the “Shifts (number) Shift from ISWS to PW” value ([1]; 30 mg/kg i.p.) was 74.2 number. For the same molecule, the “Shifts (number) Shift from REMS to AW” value ([1]; 30 mg/kg i.p.) was 65.1 number, the “Shifts (number) Shift from REMS to PW” value ([1]; 30 mg/kg i.p.) was 4.1 number and the “Shifts (number) Shift from dSWS to AW” value ([1]; 30 mg/kg i.p.) was 8.7 number. For the same molecule, the “Shifts (number) Shift from dSWS to PW” value ([1]; 30 mg/kg i.p.) was 17.6 number, the “Total sleep time TST” value ([1]; 30 mg/kg i.p.) was 527.0 ± 7.9 min and the “dSWS/TST (%)” value ([1]; 30 mg/kg i.p.) was 39.2 ± 2.9 %. The active wakefulness ([1]; 30 mg/kg i.p., first 3 hours following the administration) was “significant enhancement”, the “change in total time spent in REM sleep” value [1, 5] was −25% and the “change in total time spent in active wakefulness” value [1, 5] was “+19%”. The “change … in light sleep” value [1, 5] was −20%, the “change in total time spent in passive wakefulness” value [1, 5] was −29% and the “active wakefulness at the expense of time spent in light sleep, deep sleep and REM sleep” value ([1]; 30 mg/kg, first 3 to 4 hours after the administration) was “strongly increased”. For the same molecule, the “changes in vigilance states” value ([1]; 3 and 10 mg/kg) was “Minor changes”, the “duration of central activity” value ([1]; after intraperitoneal injection) was “at least 4 hours” and the “peak in effect, time post administration” value ([1]; i.p.) was “around 2 hours”. The onset of activity ([1]; i.p., time following administration) was about 30 min and the “Spontaneous Locomotor Activity” value (Rats) was “stimulant or energizing effects”.
